Data reported in patent US8404855B2, “Substituted enaminocarbonyl compounds” (Bayer CropScience AG, priority 2006, dated 2013).

What was measured:
[1] = tested on: green peach aphid (Myzus persicae); assay: Myzus persicae test, hydroponic treatment (MYZUPE sys.); format: in vivo; conditions: pea plant in treated water
Method: The preparation of active compound is mixed with water. The stated concentration refers to the amount of active compound per volume unit of water (mg/l=ppm). The treated water is filled into containers housing a pea plant (Pisum sativum) which is then infected with the green peach aphid (Myzus persicae).
(§1) After the desired period of time, the kill in % is determined.

[2] = tested on: green peach aphid (Myzus persicae); assay: Myzus test (MYZUPE spray treatment); format: in vivo
Text: In this test, for example, the following compounds of the Preparation Examples show good activity: see table

Lucilia cuprina larvae = assay: Lucilia cuprina test (LUCICU); format: in vivo; conditions: treated horse meat
Method: as §1

[3] = tested on: cotton aphid (Aphis gossypii); assay: Aphis gossypii test (APHIGO), leaf dip; format: in vivo; conditions: cotton leaves dipped
Method: as §1

[4] = tested on: green peach aphid (Myzus persicae); assay: Myzus persicae test (MYZUPE T), leaf dip; format: in vivo; conditions: 20 ppm; cabbage leaves dipped; comparison with prior art
Method: as §1

[5] = tested on: green peach aphid (Myzus persicae); assay: Myzus test; oral (MYZUPE O); format: in vivo
Boophilus microplus = Boophilus microplus test (BOOPMI injection); format: in vivo; conditions: 20 ppm (so in the source), 100% = no tick has laid fertile eggs, comparison with prior art
Method: The solution of active compound is injected into the abdomen (Boophilus microplus), and the animals are transferred into dishes and kept in a temperature-controlled room.
100% means that no tick has laid any fertile eggs.

[6] = tested on: adult fleas (Ctenocephalides felis); assay: Ctenocephalides felis; oral (CTECFE); format: in vivo; conditions: 100 ppm in citrated cattle blood
Method: Part of the concentrate is diluted with citrated cattle blood, and the desired concentration is prepared.
20 unfed adult fleas (Ctenocephalides felis) are placed into a chamber whose top and bottom ends are closed with gauze. A metal cylinder whose bottom end is closed with parafilm is placed onto the chamber. The cylinder contains the blood/active compound preparation, which can be taken up by the fleas through the parafilm membrane. The blood is warmed to 37° C., but the flea chamber is at room temperature.
as §1

Meloidogyne incognita = assay: Meloidogyne test (MELGIN spray treatment); format: in vivo; conditions: 20 ppm; gall formation, 100% = no galls; comparison with prior art
Method: Containers are filled with sand, active compound solution, Meloidogyne incognita egg/larvae suspension and lettuce seeds. The lettuce seeds germinate and the plants develop. On the roots, galls are formed.
After the desired period of time, the nematicidal activity is determined by the formation of galls in %. 100% means that no galls were found; 0% means that the number of galls on the treated plants corresponds to that of the untreated controls.

[7] = tested on: larvae of the mustard beetle (Phaedon cochleariae); assay: Phaedon test (PHAECO spray treatment); conditions: 500 g/ha; Chinese cabbage leaf disks sprayed
[8] = 0.8 ppm, comparison with prior art
[9] = 4 ppm, comparison with prior art
[10] = 500 g/ha, Chinese cabbage leaf disks sprayed

## O=C1C=C(N(Cc2ccc(Cl)nc2)CC(F)F)CO1 [Example 1, 4-[[(6-Chloropyridin-3-yl)methyl](2,2-difluoroethyl)amino]furan-2(5H)-one]
[1]; [8]
  Kill rate in % after 6 days: 100%
[2]; 4 g/ha, leaf disks sprayed, comparison with prior art
  Kill rate in % after 5 days: 80%
Lucilia cuprina larvae; [9]
  Kill rate in % after 2 days: 100%
[3]; [8]
  Kill rate in % after 6 days: 60%
[3]; [9]
  Kill rate in % after 6 days: 98%
[4]
  Kill rate in % after 6 days: 95%
[5]; 0.032 ppm, oral, comparison with prior art
  Kill rate in % after 5 days: 100%

## O=C1C=C(N(CCCF)Cc2ccc(Cl)nc2)CO1 [Example 2, 4-[[(6-Chloropyridin-3-yl)methyl](3-fluoro-n-propyl)amino]furan-2(5H)-one]
[2]; [10]
  Kill rate in % after 5 days: 100%
[5]; 20 ppm, oral uptake by sucking
  Kill rate in % after 5 days: 100%

## O=C1C=C(N(CC=C(Cl)Cl)Cc2ccc(Cl)nc2)CO1 [Example 3, 4-[[(6-Chloropyridin-3-yl)methyl](3,3-dichloroprop-2-en-1-yl)amino]furan-2(5H)-one]
[2]; [10]
  Kill rate in % after 5 days: 100%

## O=C1C=C(N(CCF)Cc2ccc(Cl)nc2)CO1 [Example 4, 4-[[(6-Chloropyridin-3-yl)methyl](2-fluoroethyl)amino]furan-2(5H)-one]
Boophilus microplus
  Kill rate in % after 7 days: 100%
[6]; comparison with prior art
  Kill rate in % after 1 day: 30%
Meloidogyne incognita
  Kill rate in % after 14 days: 70%
[1]; 0.16 ppm, comparison with prior art
  Kill rate in % after 6 days: 55%
[1]; [8]
  Kill rate in % after 6 days: 100%
[3]; [9]
  Kill rate in % after 6 days: 99%
[4]
  Kill rate in % after 6 days: 80%

## CC1OC(=O)C=C1N(Cc1ccc(Cl)nc1)CC(F)F (centres unmarked) [Example 6, 4-[[(6-Chloropyridin-3-yl)methyl](2,2-difluoroethyl)amino]-5-methylfuran-2(5H)-one]
[2]; [10]
  Kill rate in % after 5 days: 100%

## O=C1OCC(N(Cc2ccc(Cl)nc2)CC(F)F)=C1Br [Example 7, 3-Bromo-4-[[(6-chloropyridin-3-yl)methyl](2,2-difluoroethyl)amino]furan-2(5H)-one]
[2]; [10]
  Kill rate in % after 5 days: 100%

## O=C1OCC(N(Cc2ccc(Cl)nc2)CC(F)F)=C1Cl [Example 8, 3-Chloro-4-[[(6-chloropyridin-3-yl)methyl](2,2-difluoroethyl)amino]furan-2(5H)-one]
[1]; 4 ppm
  Kill rate in % after 6 days: 98%
[2]; [10]
  Kill rate in % after 5 days: 100%
Lucilia cuprina larvae; 100 ppm
  Kill rate in % after 2 days: 100%
[3]; 20 ppm
  Kill rate in % after 6 days: 100%

## O=C1C=C(N(Cc2ccc(F)nc2)CC(F)F)CO1 [Example 15]
[6]
  Kill rate in % after 2 days: 90%
[7]
  Kill rate in % after 7 days: 100%
[1]; 4 ppm
  Kill rate in % after 6 days: 100%
[2]; [10]
  Kill rate in % after 5 days: 100%
Lucilia cuprina larvae; 100 ppm
  Kill rate in % after 2 days: 90%
[3]; 100 ppm
  Kill rate in % after 6 days: 100%

## O=C1C=C(N(Cc2ccc(Cl)nc2)CC(F)Cl)CO1 (centres unmarked) [Example 17, 4-[[(6-chloropyridin-3-yl)methyl](2-chloro-2-fluoroethyl)amino]furan-2(5H)-one]
[7]
  Kill rate in % after 7 days: 100%
[2]; [10]
  Kill rate in % after 5 days: 100%

## (E/Z)-4-[[(6-Chloropyridin-3-yl)methyl](2-fluorovinyl)amino]-5-methylfuran-2(5H)-one [Example 5]
[2]; [10]
  Kill rate in % after 5 days: 100%
